Entries after “also recorded” stand apart in the source; their conditions may differ.
Columns and labels:
[1] = test system: IFN-γ secretion from TIB-71 macrophages; assay: IFN-γ secretion by ELISA; format: cell-based, mouse
Description: Within the scope of the ELISA study, the effect of varying concentrations of the peptides we synthesized on the mouse macrophage cell line was examined. In this study, a cell line that was not treated with AMPs and LPS, a cell line treated only with AMPs, a cell line treated only with LPS, and a cell line treated with both LPS and AMPs were used. To find the changing TNF-α ratio after incubation, the kit named Mouse Tumor Necrosis Factor α ELISA Kit-RAB0477 (Sigma-Aldrich) was applied according to the protocol. Graphpad Prism (9.0.0) was utilized for performing a one-way ANOVA test (α = 0.05) for the statistical analysis. Similarly, ELISA was applied to measure the change in IFN-γ levels in response to the peptides and LPS. In this experiment, the Mouse IFN-γ ELISA Kit-E-EL-[…] was applied according to the specified kit protocol, and the results were evaluated.

[2] = test system: IL-6 expression in TIB-71 macrophages; assay: IL-6 expression by western blotting; format: cell-based, mouse; conditions: for IL-6 expression: peptide alone, normalized to β-actin, versus unstimulated cells, repeated twice
Description: Protein was extracted from TIB-71 cells for use in western blotting. For this purpose, the supernatant of the cells grown in the appropriate environment was separated for ELISA, whereas protein was extracted from the cellular pellets. Protein obtained using the Protein Extraction Kit (Abcam, Cambridge, UK) was prepared for western blotting. The concentrations of protein samples were determined using the Pierce BCA protein assay kit (Thermo Fisher Scientific). The results were analyzed by reading them on a 96-well plate reader at 565 nm. IL-6 was separated by 12% (w/v) SDS-PAGE and transferred onto a PVDF membrane using the wet transfer technique to compare the expression levels of the markers. Proteins were measured using horseradish peroxidase (HRP)-based clarity western ECL substrate and read using ChemiDoc devices. The area of the bands obtained in the western blotting results was computed using Image Lab software. Specifically, the volume occupied by the bands on the membrane was determined, and the band volume of IL-6 was normalized to that of β-actin to assess protein expression in a semiquantitative manner. Microsoft Excel was used for the semiquantitative analysis. IL-6 secretion by mouse macrophages in response to AMP exposure was examined by GraphPad Prism 9.0.0 one-way ANOVA test (GraphPad, La Jolla, CA, USA).

[3] = test system: TNF-α secretion from TIB-71 macrophages; assay: TNF-α secretion by ELISA; format: cell-based, mouse; conditions: for TNF-α response: peptide together with LPS (50 ng/mL), NET1 versus peptide only, NET2 at 2 or 4 µg/mL
Description: Within the scope of the ELISA study, the effect of varying concentrations of the peptides we synthesized on the mouse macrophage cell line was examined.
In this study, a cell line that was not treated with AMPs and LPS, a cell line treated only with AMPs, a cell line treated only with LPS, and a cell line treated with both LPS and AMPs were used. To find the changing TNF-α ratio after incubation, the kit named Mouse Tumor Necrosis Factor α ELISA Kit-RAB0477 (Sigma–Aldrich) was applied according to the protocol. Graphpad Prism (9.0.0) was utilized for performing a one-way ANOVA test (α = 0.05) for the statistical analysis.

[4] = test system: TIB-71 RAW 264.7 macrophages; assay: MTT cytotoxicity assay; format: cell-based, Mus musculus; conditions: for cytotoxicity (MTT), broad screening / cytotoxicity (MTT) / concentration from which NET1 and NET2 displayed similar cytotoxicity: LPS-free; for cytotoxicity (MTT), broad screening: peptide 0.125-64 µg/mL; for cytotoxicity (MTT), broad screening / cytotoxicity (MTT): triplicates; for cytotoxicity (MTT): peptide concentrations up to 4 μg/mL; for concentration from which NET1 and NET2 displayed similar cytotoxicity: screening 64 to 0.125 µg/mL; for increase of toxicity compared to that in the absence of LPS: with LPS (1, 10, 100 ng/mL) versus without LPS
Description: The TIB-71 RAW 264.7 macrophage line, which was obtained from Mus musculus, was used in this study, and this cell line was supplied by ATCC (Manassas, VA, USA). The MTT Cell Proliferation Kit (Sigma–Aldrich, St. Louis, MO, USA), a colorimetric method, was used to evaluate the damage caused by the peptides in eukaryotic cells. TIB-71 RAW 264.7 macrophages were revived under appropriate culture conditions (37°C, 5% CO2) to prepare for the experiment. The final concentration of peptides ranged 0.125–64 μg/mL. Samples were examined in triplicates for each concentration. Cells incubated without peptide treatment under the same conditions were used as the control. Magainin 2 (Mag2), a known natural AMP with no cytotoxic effects, was used as a positive control. The results were obtained using a 96-well plate reader at 550 and 690 nm.

[5] = peptide together with LPS (50 ng/mL)
[6] = peptide 0.5 µg/mL, response to decreasing LPS concentrations (1, 10, 100 ng/mL)
[7] = peptide 2 µg/mL, LPS 1, 10, 100 ng/mL
[8] = peptide 4 µg/mL, LPS 1, 10, 100 ng/mL

Substance | IFN-γ secretion [1, 5] | IL-6 expression compared with the other groups ([2]; NET1 at the lowest concentration of 2 µg/mL) | IL-6 expression ([2]; no LPS) | TNF-α response [3] | cytotoxicity (MTT), broad screening [4] | cytotoxicity (MTT) [4] | concentration from which NET1 and NET2 displayed similar cytotoxicity [4] | cytotoxicity in the presence of LPS [4, 6] | cytotoxicity in the presence of LPS ([4]; peptide 1 µg/mL, LPS 1, 10, 100 ng/mL) | cytotoxicity in the presence of LPS [4, 7] | cytotoxicity in the presence of LPS [4, 8] | increase of toxicity compared to that in the absence of LPS ([4]; peptide 4 µg/mL) | IFN-γ secretion ([1]; peptide alone, LPS-free medium, three concentrations, versus control, one-way ANOVA) | IL-6 expression lower than that in NET1-treated cells ([2]; NET2 used alone, no LPS) | IL-6 expression in cells treated with LPS ([2]; peptide 8 µg/mL with LPS) | IL-6 expression in combination with LPS ([2]; peptide 2 and 4 µg/mL with LPS, versus the other groups) | TNF-α secretion ([3]; peptide alone, LPS-free medium)
RLLLRLLRRLLRLLLR-NH2 [NET1, designed LL-37-like 16-amino acid antimicrobial peptide, …-NH2] | decrease IFN-γ expression | threefold lower | decreased | did not differ | low cytotoxicity | did not cause significant cytotoxicity | 4000 ng/mL | decreased NET1 cytotoxicity | lower cytotoxicity | lower cytotoxicity than NET2 | lowest toxicity | threefold |  |  |  |  | 
RLLLRLLRRLLRLLLR-NH2 [NET2, designed LL-37-like 16-amino acid antimicrobial peptide, …-NH2] | significantly increased |  | reduced IL-6 expression | increased significantly | low cytotoxicity; also recorded: lower toxicity than the other peptides | did not cause significant cytotoxicity | 4000 ng/mL | increased cytotoxicity |  | increased with as the LPS concentration decreased | increased as the LPS concentration decreased | tenfold | lower IFN-γ expression than NET1; also recorded: significantly increased | 50% | anti-inflammatory effect | significantly increased | decreased with decreasing peptide concentrations
